Values quoted from earlier work as cited in patent US20170246117A1, “INJECTABLE MICROPARTICLES FOR HYPER-LOCALIZED RELEASE OF THERAPEUTIC AGENTS” (priority 2014, published 2017).

How the values were obtained:
[1] = reported, Mollmann et al. 1998
[2] = 40 mg, human subjects; Derendorf et al. 1986; FIG. 7

| EC50 [1] [pg/mL] | SMILES | release profile after intra-articular administration [2] |
| --- | --- | --- |
| 7 to 30 | CCC(=O)O[C@]1(C(=O)SCF)[C@H](C)C[C@H]2[C@@H]3C[C@H](F)C4=CC(=O)C=C[C@]4(C)[C@@]3(F)[C@@H](O)C[C@@]21C [fluticasone propionate] |  |
|  | CC(C)(C)CC(=O)OCC(=O)[C@@]12OC(C)(C)O[C@@H]1C[C@H]1[C@@H]3CCC4=CC(=O)C=C[C@]4(C)[C@@]3(F)[C@@H](O)C[C@@]12C [triamcinolone hexacetonide] | significant initial burst followed by rapid decline |
